In PubChem BioAssay AID686982:

What was measured:
[1] = system: P. berghei liver stage in HepG2, luciferase, 48 h; experiment: kinase inhibitors blocking P. berghei liver stage, confirmation, cell-based, HepG2, luciferase, host viability, known kinase inhibitors (AID 686982); details: at 10 µM; stronger effect = lower value
[2] = as above; details: P. berghei liver stage in HepG2, luciferase, 48 h; measured here: HepG2 viability, % of control; at 10 µM; stronger effect = lower value

Row | Structure (SMILES) | parasite load, % of control [1] | viability [2]
1 | Cc1ccc2c(-c3ccnc(Nc4ccccc4)n3)c(-c3ccc(F)cc3)nn2n1 | 1.15% | 206%
2 | Fc1ccc(-c2c(-c3ccncc3)[nH]c3cccnc23)cc1 | 1.19% | 163%
3 | COc1cc[nH]c1C=C1C(=O)Nc2ccc(F)c(C#CC3(O)CCOCC3)c21 | 1.05% | 111%
